# In patent US20230364111A1 (priority 2020, published 2023):
# Entries after “also recorded” stand apart in the source; their conditions may differ. Like-named read-outs stand apart in the source and are kept apart here.
# Experiments:
# [1] = tested on: double-membrane vesicles (DMVs) in SARS-CoV-2-infected cells; assay: Electron microscopy of double-membrane vesicle (DMV) formation; assay type: cell-based; settings: 10 μM Oxy210, Oxy232 (10 μM)
# [2] = tested on: SARS-CoV-2 TY7-501 (Brazil strain); assay: SARS-CoV-2 TY7-501 strain infection in VeroE6/TMPRSS2 cells; assay type: cell-based; settings: viral RNA 24 h post-inoculation
# Description: (§1) FIGS. 12A-12C depict dose-response curves for Oxy232. (FIG. 12A) Secreted viral RNA in the VeroE6 culture supernatant 24 h post-inoculation was quantified by real-time RT-PCR. Cell viability of Oxy232 treated cells evaluated with an MTT assay. (FIG. 12B) Secreted viral RNA of 3 SARS-CoV-2 strains in the VeroE6 culture supernatant 24 h post-inoculation was quantified by real-time RT-PCR. (FIG. 12C) Calu-3 (ATCC) cells were pretreated with Oxy232 for 2 hours prior to continuous infection with SARS-CoV-2 (isolate USA WA1/2020) at MOI=0.5. 48 h post-infection, cells were fixed, immune-strained, and imaged by automated microscopy for infection (dsRNA+ cells/total cell number) and cell number.
# (§2) According to a previously published report (Ohashi et al., Identification of Anti-Severe Acute Respiratory Syndrome-Related Coronavirus 2 (SARS-CoV-2) Oxysterol Derivatives In Vitro. Int J Mol Sci. 2021; 22(6):3163. PMCID: PMC8003796) inventors have tested a collection of naturally occurring and semisynthetic oxysterol derivatives in a SARS-CoV-2 cell culture infection assay in VeroE6/TMPRSS2 cells. […] See, Ohashi et al., Int J Mol Sci. 2021; 22(6):3163 and Dittmar et al. Drug repurposing screens reveal cell-type-specific entry pathways and FDA-approved drugs active against SARS-Cov-2. Cell Rep. […] PMCID: PMC7985926. […]
# [3] = assay type: in vivo, mice; settings: chow diet containing 4 mg Oxy210/g of food; 96 h
# [4] = in vitro; settings: human
# [5] = single oral dose 200 mg/kg
# [6] = tested on: SARS-CoV-2; assay type: cell-based
# [7] = tested on: SARS-CoV-2 TY8-612 (South Africa strain); assay: SARS-CoV-2 TY8-612 strain infection in VeroE6/TMPRSS2 cells; assay type: cell-based; settings: viral RNA 24 h post-inoculation
# Description: as §1, §2
# [8] = tested on: HCV NN (genotype-1b) subgenomic replicon; assay type: cell-based, Hepatitis C virus (HCV); settings: 10 μM Oxy210; 48 h; LucNeo #2 cells
# [9] = tested on: idiopathic pulmonary fibrosis (IPF); assay: Mouse model of idiopathic pulmonary fibrosis (IPF); assay type: in vivo; settings: Parhami et al., unpublished observations
# [10] = tested on: SARS-CoV-2; assay: Time of addition assay, SARS-CoV-2 viral RNA; assay type: cell-based; settings: 15 μM RDV, 15 μM CLQ, 10 μM Oxy210, 10 μM Oxy133
# [11] = in vivo; settings: balb/c, mouse, po, 200 mg/kg
# [12] = tested on: SARS-CoV-2 (isolate USA WA1/2020); assay: SARS-CoV-2 infection of Calu-3 cells (dsRNA+ cells, automated microscopy); assay type: cell-based; settings: Severe acute respiratory syndrome coronavirus 2, SARS-CoV-2 USA WA1/2020, MOI=0.5, 48 h post-infection, Calu-3
# Description: as §1
# According to a previously published report (Ohashi et al., Identification of Anti-Severe Acute Respiratory Syndrome-Related Coronavirus 2 (SARS-CoV-2) Oxysterol Derivatives In Vitro. Int J Mol Sci. 2021; 22(6):3163. PMCID: PMC8003796) inventors have tested a collection of naturally occurring and semisynthetic oxysterol derivatives in a SARS-CoV-2 cell culture infection assay in VeroE6/TMPRSS2 cells. […] See, Ohashi et al., Int J Mol Sci. 2021; 22(6):3163 and Dittmar et al. Drug repurposing screens reveal cell-type-specific entry pathways and FDA-approved drugs active against SARS-Cov-2. Cell Rep. […] PMCID: PMC7985926. […] Without wishing to be bound by a theory, biological activities of oxysterols, including measures of cell viability, can heavily depend on in vitro assay conditions, such as the fetal bovine serum concentration or the duration of pretreatment with the compounds, among other factors, that may not translate to the in vivo safety of the compounds.
# [13] = tested on: HDV; assay type: cell-based, Hepatitis D virus (HDV); settings: 10 μM Oxy210 for six days; 200 nM MyrB; HepG2-hNTCP-C4 cells
# [14] = tested on: Calu-3 cells; settings: at higher concentrations; automated microscopy
# [15] = tested on: TGFβ signaling; settings: previously reported [16]; fibroblastic cells and tumor cells; cited from earlier work
# [16] = tested on: SARS-CoV-2; assay: SARS-CoV-2-induced cytopathic effect (CPE) in VeroE6/TMPRSS2 cells; assay type: cell-based
# [17] = tested on: VeroE6/TMPRSS2 cells; settings: read-out: CC50 (VeroE6); VeroE6
# [18] = tested on: Hedgehog (Hh) signaling; settings: previously reported [16]; fibroblastic cells and tumor cells; cited from earlier work
# [19] = In vivo safety and tolerability in mice; settings: mouse
# [20] = in vitro; settings: African green monkey
# [21] = tested on: SARS-CoV-2 Wk-521 strain; assay: SARS-CoV-2 infection assay, viral RNA in culture supernatant (VeroE6/TMPRSS2 cells); assay type: cell-based
smiles,measurement,setting,value
"C[C@]12CC[C@H]3[C@@H](CC=C4C[C@@H](O)CC[C@@]43C)[C@@H]1CC[C@@H]2[C@](C)(O)CCc1cccnc1 [Oxy210, (3S,8S,9S,10R,13S,14S,17S)-17-((R)-2-hydroxy-4-(pyridin-3-yl)butan-2-yl)-10,13-dimethyl-2,3,4,7,8,9,10,11,12,13,14,15,16,17-tetradecahydro-1H-cyclopenta[a]phenanthren-3-ol]",DMV formation in SARS-CoV-2-infected cells,[1],disrupting the formation of double-membrane vesicles; also recorded: reduced viral replication and the formation of double-membrane vesicles; also recorded: remarkably reduced the DMV formation; also recorded: reduced the formation of DMVs; also recorded: substantially reduced; also recorded: inhibit DMV formation
same,activity against the TY7-501 strain,[2],undiminished activity
same,adverse effects / body weight,[3],No adverse effects or significant loss of body weight
same,CC50,[4],8.3 µM
same,Tmax,[5]; plasma,1 h
same,Cmax,"[5]; read-out: peak plasma concentration (Cmax), 200 mg/kg",19.4 µM
same,peak plasma concentration (Cmax),[5],"8,155 ng/mL"
same,tolerability,[5],well tolerated
same,"SARS-CoV-2 propagation / spread of infection (viral N protein, immunofluorescence)",[6],blocked
same,activity against the TY8-612 strain,[7],undiminished activity
same,HCV replication (luciferase activity),[8],reduced the DMV-dependent RNA replication of HCV; also recorded: Antiviral effects of Oxy210 were also observed during the replication of HCV
same,effects in a mouse model of idiopathic pulmonary fibrosis (IPF),[9],protective effects
same,"viral RNA, compound present during the whole life cycle",[10]; 24 h,clearly reduced viral RNA levels
same,"viral RNA, compound present post-entry",[10]; added 2 h post-inoculation for 21 h,clearly reduced viral RNA levels; also recorded: predominantly inhibits the post-entry process
same,AUC,[11],29300 ng·h/mL
same,Cmax,[11],19 µM
same,IC50,[12]; read-out: IC50 (Calu-3),1.5 µM
same,IC90,[12]; read-out: IC90 (Calu-3),4.24 µM
same,"HDV replication / infection (HDV RNA, real-time RT-PCR)",[13],antiviral activity was not observed in HDV infection
same,cell viability in Calu-3 cells,[14],do affect cell viability
same,TGFβ signaling,[15],inhibited
same,virus-induced CPE,"[16]; 48 h post-inoculation, 10 μM RDV, 30 μM cholesterol, 30 μM 7-KC, 10 μM Oxy133, 10 μM Oxy210, MOI 0.001",alleviates the virus-induced CPE; also recorded: blocked
same,SARS-CoV-2-induced cytopathic effect,"[16]; oxy8 7.5 uM, oxy16 20 uM, oxy186 20 uM, oxy210 10 uM, 48 h, VeroE6/TMPRSS2",protected cells from cytopathic effect
same,CC50,[17],> 15 µM
same,Hedgehog (Hh) signaling,[18],inhibited
same,in vivo safety and tolerability in mice,[19],excellent in vivo safety and tolerability
same,CC50,[20],> 15 µM
same,viral RNA in the culture supernatant,"[21]; 24 h post-inoculation, natural oxysterols up to 30 μM, semi-synthetic up to 15 μM",reduced viral RNA level in a dose-dependent manner
same,IC50,"[21]; Severe acute respiratory syndrome coronavirus 2, Vero C1008, SARS-CoV-2, VeroE6, read-out: IC50 (VeroE6)",5.5 µM
same,IC90,"[21]; Severe acute respiratory syndrome coronavirus 2, Vero C1008, SARS-CoV-2, VeroE6, read-out: IC90 (VeroE6)",8.6 µM
same,IC90,"[21]; Severe acute respiratory syndrome coronavirus 2, VeroE6/TMPRSS2, 24 h, SARS-CoV-2 viral RNA in culture supernatant, 24 h post-inoculation, VeroE6/TMPRSS2 cells, read-out: IC90",8.6 µM
same,IC50,"[21]; Severe acute respiratory syndrome coronavirus 2, SARS-CoV-2 viral RNA in culture supernatant, 24 h post-inoculation, VeroE6/TMPRSS2 cells, read-out: IC50",5.5 µM
same,reduction of viral RNA production at the maximum,[21]; at 15 μM,99.4%
same,anti-SARS-CoV-2 activity,"[21]; cell-based assay, VeroE6/TMPRSS2",superior anti-SARS-CoV-2 activity; also recorded: robust anti-SARS-CoV-2 activity
same,viral RNA levels in the culture supernatant,"[21]; oxysterol derivatives at 10 or 30 uM, 24 h post-inoculation, VeroE6/TMPRSS2",strongly reduced viral RNA levels
same,SARS-CoV-2 propagation in cultured cells,[21]; statement in words,potently inhibits the SARS-CoV-2 propagation
same,SARS-CoV-2 replication,[21]; statement in words,drastically reduced SARS-CoV-2 replication; also recorded: inhibits the SARS-CoV-2 genome replication; also recorded: potent replication inhibitor
same,"antiviral effect against SARS-CoV-2 (dose response, viral RNA)","[21]; various concentrations, VeroE6/TMPRSS2",highly potent antiviral effect
